In article PMC5706701, “Development of a homogenous high-throughput assay for inositol hexakisphosphate kinase 1 activity” (PLoS ONE, 2017):
Where a name gives a salt, the structure may show the parent alone. Read-outs that look alike come from different tables or passages of the source.

Biological target: T1, Human IP6K1 (Homo sapiens, UniProt Q92551)
T1 construct: GST (N, cleaved yes); made in house; host or cells: C43 E. coli, pGEX-6P-2
Test: IP6K1 high-throughput screen of the Sigma LOPAC (ADP-Glo Max, single point);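 note: final compound concentration 10µM in 5% DMSO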
Assay type: biochemical

[1] = Sigma LOPAC single-point screen, ADP-Glo Max raw signal per well
[2] = Sigma LOPAC single-point screen, Z-score from plate average and StDev
[3] = LOPAC single-point screen, ADP-Glo Max raw signal per well
[4] = LOPAC single-point screen, Z-score from raw signal with plate average and StDev
[5] = LOPAC single-point screen, ADP-Glo Max luminescence raw signal per well
[6] = LOPAC single-point screen, Z-score from plate average and StDev
[7] = LOPAC single-point screen, Z-score relative to plate average and StDev
[8] = LOPAC single-point screen, Z-score against plate average and StDev

T1 sequence (Q92551 whole entry): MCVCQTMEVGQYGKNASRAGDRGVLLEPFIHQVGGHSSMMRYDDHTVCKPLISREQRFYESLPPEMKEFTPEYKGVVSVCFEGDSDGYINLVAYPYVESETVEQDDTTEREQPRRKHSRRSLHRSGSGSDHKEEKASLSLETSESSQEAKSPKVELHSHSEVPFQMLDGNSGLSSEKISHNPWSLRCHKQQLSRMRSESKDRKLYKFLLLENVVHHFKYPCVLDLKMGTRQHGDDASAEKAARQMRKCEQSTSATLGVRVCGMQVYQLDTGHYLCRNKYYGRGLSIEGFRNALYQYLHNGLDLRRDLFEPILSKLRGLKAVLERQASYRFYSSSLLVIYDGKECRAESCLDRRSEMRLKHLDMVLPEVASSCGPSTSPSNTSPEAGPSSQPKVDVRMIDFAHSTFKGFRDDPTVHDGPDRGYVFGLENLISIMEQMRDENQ

CC(C)(C)NCC(O)COc1cccc2[nH]c(=O)[nH]c12.Cl (racemic) [(±)-CGP-12177A hydrochloride]
Raw Signal [1]: 57688 | Z-score [2]: 0.512

Nc1ccc(S(=O)(=O)Nc2ccnn2-c2ccccc2)cc1 [Sulfaphenazole]
Raw Signal [3]: 54328 | Z-score [4]: -0.3295

N#CC(=C(/N)Sc1ccccc1N)/C(C#N)=C(/N)Sc1ccccc1N [U0126]
Raw Signal [3]: 55334 | Z-score [4]: -0.134

CNCCc1c[nH]c2ccc(O)cc12.O=C(O)C(=O)O
Raw Signal [3]: 53556 | Z-score [4]: -0.1407

CC[C@]1(O)C[C@@H]2CN(CCc3c([nH]c4ccccc34)[C@@](C(=O)OC)(c3cc4c(cc3OC)N(C)[C@H]3[C@@](O)(C(=O)OC)[C@H](OC(C)=O)[C@]5(CC)C=CCN6CC[C@]43[C@@H]65)C2)C1.O=S(=O)(O)O [Vinblastine sulfate salt]
Raw Signal [3]: 55305 | Z-score [4]: -0.1396

CC1Cc2cc3c(cc2C(c2ccc(N)cc2)=NN1)OCO3 (stereo not shown) [GYKI 52895]
Raw Signal [5]: 63898 | Z-score [6]: 1.773

Cc1ccc(C(=O)Nc2ccc(S(=O)(=O)O)c3cc(S(=O)(=O)O)cc(S(=O)(=O)O)c23)cc1NC(=O)c1cccc(NC(=O)Nc2cccc(C(=O)Nc3cc(C(=O)Nc4ccc(S(=O)(=O)O)c5cc(S(=O)(=O)O)cc(S(=O)(=O)O)c45)ccc3C)c2)c1 [Suramin hexasodium]
Raw Signal [5]: 10286 | Z-score [7]: -8.886

COc1cc(/C=C(\C#N)C(=O)c2ccc(O)c(O)c2)cc(I)c1O [I-OMe-Tyrphostin AG 538]
Raw Signal [3]: 53763 | Z-score [4]: -0.4392

CC1=C(C(=O)O)N2C(=O)[C@@H](NC(=O)[C@H](N)C3=CCC=CC3)[C@H]2SC1 [Cephradine]
Raw Signal [3]: 56353 | Z-score [4]: -0.2748

COc1ccc2c(c1OC)C(=O)O[C@@H]2[C@H]1c2c(cc3c(c2OC)OCO3)CCN1C.Cl [Noscapine hydrchloride]
Raw Signal [3]: 53510 | Z-score [4]: -0.1485

OC[C@H]1O[C@@H](n2cnc3c(N[C@H]4CC5CCC4C5)ncnc32)[C@H](O)[C@@H]1O (stereo partly drawn) [(S)-ENBA]
Raw Signal [3]: 53537 | Z-score [4]: -0.331

COc1cc(C(O)C(=O)O)ccc1O (racemic) [(±)-Vanillylmandelic acid]
Raw Signal [5]: 52849 | Z-score [7]: -0.4708

S-Nitroso-N-acetylpenicillamine
Raw Signal [3]: 52205 | Z-score [4]: -0.3677

CN1[C@@H]2CC[C@H]1C[C@@H](OC(c1ccccc1)c1ccccc1)C2 [Benztropine mesylate]
Raw Signal [1]: 60233 | Z-score [2]: 0.4086

CNC(=O)[C@H]1O[C@@H](n2cnc3c(NCc4cccc(I)c4)nc(Cl)nc32)[C@H](O)[C@@H]1O [Chloro-IB-MECA]
Raw Signal [5]: 50053 | Z-score [7]: -1.039

NC(N)=NCc1cccc(I)c1.NC(N)=NCc1cccc(I)c1.O=S(=O)(O)O [m-Iodobenzylguanidine hemisulfate]
Raw Signal [1]: 60474 | Z-score [2]: 1.022

COc1ccccc1CNCCCCCCNCCCCCCCCNCCCCCCNCc1ccccc1OC.Cl.Cl.Cl.Cl [Methoctramine tetrahydrochloride]
Raw Signal [1]: 56889 | Z-score [2]: 0.4193

COc1cc(C(O)CO)ccc1OS(=O)(=O)[O-].[K+] (stereo not shown) [MHPG sulfate potassium]
Raw Signal [3]: 56093 | Z-score [8]: 0.1881

CCCCN1CCC(COC(=O)c2cc(Cl)c(N)c3c2OCCO3)CC1.Cl [SB 204070 hydrochloride]
Raw Signal [1]: 60689 | Z-score [2]: 0.9064

CC(COc1ccccc1)N(CCCl)Cc1ccccc1 (stereo not shown) [Phenoxybenzamine hydrochloride]
Raw Signal [1]: 61919 | Z-score [2]: 0.7056

CC(=O)SCC[N+](C)(C)C.[Cl-] [Acetylthiocholine chloride]
Raw Signal [3]: 58613 | Z-score [8]: 0.1233

C[N+]1(C)CCC(OC(=O)C(c2ccccc2)c2ccccc2)CC1.[I-] [4-DAMP methiodide]
Raw Signal [5]: 63096 | Z-score [6]: 1.6103

N#Cc1cc2nc([O-])c([O-])nc2cc1[N+](=O)[O-].[Na+].[Na+] [CNQX disodium]
Raw Signal [3]: 53180 | Z-score [4]: -0.4035

CC12NC(Cc3ccccc31)c1ccccc12.O=C(O)/C=C\C(=O)O (single isomer, unassigned; (+)) [(+)-MK-801 hydrogen maleate]
Raw Signal [1]: 58157 | Z-score [2]: 0.6324

C[C@@H]1O[C@@H]1P(=O)(O)O [Phosphomycin disodium]
Raw Signal [5]: 62776 | Z-score [6]: 1.408

CCCC(C)(COC(N)=O)COC(=O)NC(C)C (stereo not shown) [Carisoprodol]
Raw Signal [1]: 61112 | Z-score [2]: 0.5634

Oc1ccccc1O [Pyrocatechol]
Raw Signal [5]: 49319 | Z-score [7]: -1.514

CC(C)(C)c1cc(/C=C(\C#N)C(N)=S)cc(C(C)(C)C)c1O [Tyrphostin AG 879]
Raw Signal [3]: 56085 | Z-score [8]: 0.01189

CCCn1c(C)c(C(=O)c2cccc3ccccc23)c2ccccc21 [JWH-015]
Raw Signal [3]: 54462 | Z-score [8]: 0.01151

N.S=C(S)N1CCCC1 [Ammonium pyrrolidinedithiocarbamate]
Raw Signal [1]: 60867 | Z-score [2]: 0.9409

CCCCCCCCCC(=O)N[C@H](CN1CCOCC1)[C@H](O)c1ccccc1.Cl (racemic)
Raw Signal [1]: 58472 | Z-score [2]: 0.4756

CC(C)NCC(O)COc1ccc(CC(N)=O)cc1 (racemic) [(±)-Atenolol]
Raw Signal [3]: 56468 | Z-score [4]: -0.2545

NCC(CC(=O)O)c1ccc(Cl)cc1 (racemic) [(±)-Baclofen]
Raw Signal [1]: 65373 | Z-score [2]: 1.3139

CCC1(C2=NCCN2)Cc2ccccc2O1 (stereo not shown) [Efaroxan hydrochloride]
Raw Signal [3]: 53966 | Z-score [4]: -0.2439

Br.CN=c1nc(-c2ccccc2)n(-c2ccccc2)s1 [SCH-202676 hydrobromide]
Raw Signal [5]: 51247 | Z-score [7]: -0.928

CC(N)(Cc1ccc(O)c(O)c1)C(=O)O (racemic)
Raw Signal [5]: 41540 | Z-score [7]: -2.16

CC(=O)S[C@@H]1CC2=CC(=O)CC[C@]2(C)[C@H]2CC[C@@]3(C)[C@@H](CC[C@@]34CCC(=O)O4)[C@H]12 [Spironolactone]
Raw Signal [5]: 50910 | Z-score [7]: -0.9935

Cc1ccccc1CNc1ncnc2c1ncn2[C@@H]1O[C@H](CO)[C@@H](O)[C@H]1O [Metrifudil]
Raw Signal [3]: 54359 | Z-score [8]: -0.005798

O=c1cc(-c2ccc(O)c(O)c2)oc2cc(O)cc(O)c12 [Luteolin]
Raw Signal [5]: 50800 | Z-score [7]: -0.6038

COc1cccc(NC(=O)/C=C/c2ccc(Cl)cc2)c1 [SB-366791]
Raw Signal [5]: 52546 | Z-score [7]: -0.6757

Cc1cc(N)c2ccccc2[n+]1CCCCCCCCCC[n+]1c(C)cc(N)c2ccccc21 [Dequalinium dichloride]
Raw Signal [3]: 55705 | Z-score [8]: 0.1093

COc1cccc2c1[C@@H]1CN(CCCCn3c(=O)[nH]c4c(sc5ncc(-c6ccccc6)nc54)c3=O)C[C@@H]1CO2 [Fiduxosin hydrochloride]
Raw Signal [3]: 56814 | Z-score [8]: 0.3345

O=C(OCCN1CCOCC1)C1(c2ccccc2)CCCCC1 [PRE-084]
Raw Signal [3]: 55518 | Z-score [8]: 0.1889

O=C1NC(=O)C(c2ccccc2)(c2ccccc2)N1 [Phenytoin sodium]
Raw Signal [5]: 66782 | Z-score [6]: 2.359

Clc1ccc(N2C[C@H]3CC[C@@H](C2)N3)nn1 [DBO-83]
Raw Signal [3]: 54063 | Z-score [4]: -0.2242

CC(=O)OCC(=O)[C@@]1(O)CC[C@H]2[C@@H]3CCC4=CC(=O)CC[C@]4(C)[C@H]3C(=O)C[C@@]21C [Cortisone 21-acetate]
Raw Signal [3]: 59780 | Z-score [8]: 0.3288

[Cl-].[Li+] [Lithium Chloride]
Raw Signal [1]: 59222 | Z-score [2]: 0.8235

CN(C)CCCC1(c2ccc(F)cc2)OCc2cc(C#N)ccc21 (stereo not shown) [Citalopram hydrobromide]
Raw Signal [3]: 58251 | Z-score [8]: 0.05951

CC1=C(CC(=O)O)c2cc(F)ccc2/C1=C\c1ccc([S+](C)[O-])cc1 (stereo not shown) [Sulindac]
Raw Signal [5]: 51494 | Z-score [7]: -0.8801

CNCCCN1c2ccccc2CCc2ccccc21 [Desipramine hydrochloride]
Raw Signal [5]: 49945 | Z-score [7]: -1.061

CCCC(CCC)C(=O)O [Valproic acid sodium]
Raw Signal [5]: 64941 | Z-score [6]: 1.772

OC[C@H]1NC[C@H](O)[C@@H](O)[C@@H]1O [1-Deoxynojirimycin hydrochloride]
Raw Signal [1]: 59013 | Z-score [2]: 0.7811

CC1(C)NC(=O)N(c2ccc([N+](=O)[O-])c(C(F)(F)F)c2)C1=O [Nilutamide]
Raw Signal [1]: 62066 | Z-score [2]: 1.289

COC(=O)[C@H]1[C@H]2C[C@H]3c4[nH]c5ccccc5c4CCN3C[C@H]2CC[C@@H]1O [Rauwolscine hydrochloride]
Raw Signal [3]: 54997 | Z-score [4]: -0.1995

CN1CCCC1c1cccnc1.Cc1ccc(C(=O)OC(C(=O)O)C(OC(=O)c2ccc(C)cc2)C(=O)O)cc1 (stereo not drawn) [(+)-Nicotine (+)-di-p-toluoyl tartrate]
Raw Signal: 52925 | Z-score: -0.2467

CC(=O)O.NC(=NCCC[C@H](N)C(=O)O)NO [NG-Hydroxy-L-arginine acetate]
Raw Signal [3]: 53960 | Z-score [4]: -0.2451

NC(=NCc1ccccc1)NC(=O)c1nc(Cl)c(N)nc1N [Benzamil hydrochloride]
Raw Signal [3]: 59018 | Z-score [8]: 0.1946

O=C1CC[C@@]2(O)[C@H]3Cc4ccc(O)c5c4[C@@]2(CCN3CC2CC2)[C@H]1O5 [Naltrexone hydrochloride]
Raw Signal [3]: 52231 | Z-score [4]: -0.3634

Oc1ccc2c3c1O[C@H]1c4[nH]c5ccccc5c4C[C@@]4(O)[C@@H](C2)N(CC2CC2)CC[C@]314 [Naltrindole hydrochloride]
Raw Signal [3]: 53741 | Z-score [4]: -0.1096
